Source: patent publication US20260049085A1, “CYCLIC COMPOUNDS AND METHODS OF USING SAME” (SCHRÖDINGER, INC., priority 2022, published 2026)

target: T1, full-length MALT1 protein His-MALT1(1-824) (Homo sapiens, UniProt Q9UDY8); experiment: MALT1 protease assay (Ac-LRSR-AMC tetrapeptide substrate, fluorescence); assay type: biochemical; conditions: 1 nM MALT1, 25 μM Ac-LRSR-AMC, 2 h pre-incubation, 8 hr incubation at RT
T1 construct: full-length MALT1 protein His-MALT1(1-824); His (N); made in house; host or cells: baculovirus-infected insect cells
T1 sequence (Q9UDY8 1-824): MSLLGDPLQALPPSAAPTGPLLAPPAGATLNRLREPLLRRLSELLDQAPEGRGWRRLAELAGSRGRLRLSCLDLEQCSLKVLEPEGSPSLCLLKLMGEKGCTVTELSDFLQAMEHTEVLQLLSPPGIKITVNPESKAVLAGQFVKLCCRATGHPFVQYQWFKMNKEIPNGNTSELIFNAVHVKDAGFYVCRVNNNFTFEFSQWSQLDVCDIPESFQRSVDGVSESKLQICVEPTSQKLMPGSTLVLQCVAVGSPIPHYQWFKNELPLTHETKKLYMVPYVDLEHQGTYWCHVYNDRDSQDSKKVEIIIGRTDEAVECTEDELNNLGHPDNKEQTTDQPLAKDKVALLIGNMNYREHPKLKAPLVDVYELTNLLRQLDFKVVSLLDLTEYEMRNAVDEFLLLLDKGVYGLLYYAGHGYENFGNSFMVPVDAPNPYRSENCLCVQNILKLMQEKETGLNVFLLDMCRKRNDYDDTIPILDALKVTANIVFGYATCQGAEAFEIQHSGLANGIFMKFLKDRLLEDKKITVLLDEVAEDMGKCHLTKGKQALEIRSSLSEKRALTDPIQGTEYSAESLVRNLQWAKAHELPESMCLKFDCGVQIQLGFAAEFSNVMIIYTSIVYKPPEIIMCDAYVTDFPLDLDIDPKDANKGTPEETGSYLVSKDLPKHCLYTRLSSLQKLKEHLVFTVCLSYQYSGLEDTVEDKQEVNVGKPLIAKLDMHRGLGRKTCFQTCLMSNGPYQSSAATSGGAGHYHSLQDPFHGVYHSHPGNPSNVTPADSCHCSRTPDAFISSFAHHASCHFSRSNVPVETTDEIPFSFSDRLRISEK
Procedure: MALT1 protease activity was assessed in an in vitro assay using a tetrapeptide as substrate and full-length MALT1 protein His-MALT1(1-824) purified from baculovirus-infected insect cells.
The final assay buffer includes 1 nM of MALT1 full-length protein, 25 μM Ac-LRSR-AMC substrate, 50 mM Tris pH 7.5, 600 mM Sodium Citrate, 1 mM DTT, 1 mM EDTA, and 0.05% BSA in 384-well plate format using black microtiter square well plates (Optiplate 384-F, Perkin Elmer).
Test compounds were dissolved in 100% DMSO stock of 10 mM, with final DMSO concentration of 0.1%. Test compounds were pre-incubated with MALT1 protein for 2 h at room temperature. Substrate was added after the pre-incubation and fluorescence signal was measured using Envision at excitation 355 nm and emission 460 nm after 8 hr incubation at RT.
The fluorescence units were transformed to percentage of remaining activity by using the high control (HC, median of fluorescence signal from wells containing MALT1 protein, substrate, and DMSO) and low control (LC, median of fluorescence signal from wells with substrate only) with the formula below: […]
IC50 and Hill coefficients were obtained using Graph Pad Prism (Graph Pad software, Inc, USA) with non-linear regression analysis.

SMILES | IC50 [nM]
CC(F)(F)n1ccc([C@@]2(C)C[C@H](C(=O)Nc3cnc(-c4ncccn4)c(C(F)(F)F)c3)c3cnc4cc(F)nn4c32)n1 (single isomer, unassigned) [Example 164, (trans)-8-(1-(1,1-difluoroethyl)-1H-pyrazol-3-yl)-2-fluoro-8-methyl-N-(6-(pyrimidin-2-yl)-5-(trifluoromethyl)pyridin-3-yl)-7,8-dihydro-6H-cyclopenta[e]pyrazolo[1,5-a]pyrimidine-6-carboxamide] | < 10
C[C@]1(c2cnn(C(F)F)c2)C[C@@H](C(=O)Nc2cnc(OC(F)F)c(C#N)c2)c2cnc3cc(F)nn3c21 (single isomer, unassigned) [Example 95] | 100 to 1000
Cn1ccc([C@]2(C)C[C@@H](C(=O)Nc3cnc(-n4nccn4)c(Cl)c3)c3cnc4cc(Cl)nn4c32)n1 (single isomer, unassigned) [Example 77] | ≥ 1000
C[C@@]1(c2cnn(CC(F)(F)F)c2)C[C@@H](C(=O)Nc2cnc(-n3nccn3)c(Cl)c2)c2cnc3cc(F)nn3c21 (single isomer, unassigned) [Example 85] | ≥ 1000
CC1(c2cnn(C(F)F)c2)CC(C(=O)Nc2cnc(-c3ncc(F)cn3)c(C(F)(F)F)c2)c2cnc3cc(F)nn3c21 (single isomer, unassigned) [Example 133] | 100 to 1000
C[C@@]1(c2cnn(C3CC3)c2)C[C@@H](C(=O)Nc2cnc(OC(F)F)c(C#N)c2)c2cnc3cc(F)nn3c21 (single isomer, unassigned) [Example 73] | ≥ 1000
C[C@@]1(c2cnn(CC(F)(F)F)c2)C[C@H](C(=O)Nc2cnc(-n3nccn3)c(Cl)c2)c2cnc3cc(F)nn3c21 (single isomer, unassigned) [Example 86] | 10 to 100
C[C@]1(c2ccn(C(F)F)n2)C[C@@H](C(=O)Nc2cnc(-n3nccn3)c(C(F)(F)F)c2)c2cnc3cc(F)nn3c21 (single isomer, unassigned) [Example 127] | 10 to 100
Cc1cc(NC(=O)[C@@H]2C[C@](C)(c3cnn(C)c3)c3c2cnc2cc(F)nn32)cnc1OC(F)F (single isomer, unassigned) [Example 63] | ≥ 1000
Cn1cc([C@@]2(C)C[C@H](C(=O)Nc3cnc(OC(F)(F)F)c(C#N)c3)c3cnc4cc(F)nn4c32)cn1 (single isomer, unassigned) [Example 52] | 10 to 100
Cn1cc([C@]2(C)C[C@H](C(=O)Nc3cnc(-n4nccn4)c(Cl)c3)c3cnc4cc(F)nn4c32)cn1 (racemic) [Example 3, (cis)-N-(5-chloro-6-(2H-1,2,3-triazol-2-yl)pyridin-3-yl)-2-fluoro-8-methyl-8-(1-methyl-1H-pyrazol-4-yl)-7,8-dihydro-6H-cyclopenta[e]pyrazolo[1,5-a]pyrimidine-6-carboxamide] | 100 to 1000
C[C@]1(c2cnn(C(F)F)c2)CC(C(=O)Nc2cnc(-n3nccn3)c(C(F)(F)F)c2)c2cnc3cc(F)nn3c21 (single isomer, unassigned) [Example 83] | 100 to 1000
Cn1cc([C@@]2(C)C[C@@H](C(=O)Nc3cnc(-n4nccn4)c(Cl)c3)c3cnc4cc(Cl)nn4c32)cn1 (single isomer, unassigned) [Example 11] | 100 to 1000
C[C@@]1(c2cnn(C(F)(F)F)c2)C[C@@H](C(=O)Nc2cnc(-n3nccn3)c(Cl)c2)c2cnc3cc(F)nn3c21 (single isomer, unassigned) [Example 103] | ≥ 1000
Cn1ccc([C@@]2(C)C[C@@H](C(=O)Nc3cnc(-n4nccn4)c(Cl)c3)c3cnc4cc(F)nn4c32)n1 (single isomer, unassigned) [Example 35] | 100 to 1000
CC1(n2ccc([C@@]3(C)C[C@H](C(=O)Nc4cnc(-c5ncccn5)c(C(F)(F)F)c4)c4cnc5cc(F)nn5c43)n2)CC1 (single isomer, unassigned) [Example 158] | 10 to 100
Cn1ccc([C@]2(C)C[C@@H](C(=O)Nc3cnc(-n4nccn4)c(Cl)c3)c3cnc4cc(F)nn4c32)n1 (single isomer, unassigned) [Example 33] | ≥ 1000

SMILES | IC50 [nM]
CC1(c2ccn(C(F)F)n2)CC(C(=O)Nc2cnc(-c3cccnn3)c(C(F)(F)F)c2)c2cnc3cc(F)nn3c21 (single isomer, unassigned) [Example 162] | 10 to 100
C[C@]1(c2cn(C(F)F)nn2)C[C@H](C(=O)Nc2cnc(-n3nccn3)c(Cl)c2)c2cnc3cc(F)nn3c21 (single isomer, unassigned) [Example 175] | 10 to 100
C[C@@]1(c2cnn(C(F)F)c2)C[C@@H](C(=O)Nc2cnc(-c3ncncc3F)c(C(F)(F)F)c2)c2cnc3cc(F)nn3c21 (single isomer, unassigned) [Example 119] | ≥ 1000
C[C@]1(c2cnn(C(F)F)c2)C[C@H](C(=O)Nc2cnc(-c3ncc(F)cn3)c(C(F)(F)F)c2)c2cnc3cc(F)nn3c21 [Example 132, (6S,8R)-8-(1-(difluoromethyl)-1H-pyrazol-4-yl)-2-fluoro-N-(6-(5-fluoropyrimidin-2-yl)-5-(trifluoromethyl)pyridin-3-yl)-8-methyl-7,8-dihydro-6H-cyclopenta[e]pyrazolo[1,5-a]pyrimidine-6-carboxamide] | 10 to 100
Cn1cc([C@]2(C)C[C@H](C(=O)Nc3cnc(-n4nccn4)c(Cl)c3)c3cnc4c(Cl)c(F)nn4c32)cn1 (single isomer, unassigned) [Example 18, cis-3-chloro-N-(5-chloro-6-(2H-1,2,3-triazol-2-yl)pyridin-3-yl)-2-fluoro-8-methyl-8-(1-methyl-1H-pyrazol-4-yl)-7,8-dihydro-6H-cyclopenta[e]pyrazolo[1,5-a]pyrimidine-6-carboxamide] | ≥ 1000
C[C@]1(c2ccn(C(F)F)n2)C[C@@H](C(=O)Nc2cnc(OC(F)F)c(C#N)c2)c2cnc3cc(F)nn3c21 (single isomer, unassigned) [Example 113] | 100 to 1000
C[C@]1(c2cnn(C(F)F)c2)C[C@H](C(=O)Nc2cnc(-c3ncncc3F)c(C(F)(F)F)c2)c2cnc3cc(F)nn3c21 (single isomer, unassigned) [Example 118] | 10 to 100
C[C@@]1(c2cncs2)C[C@H](C(=O)Nc2cnc(-n3nccn3)c(Cl)c2)c2cnc3cc(F)nn3c21 (single isomer, unassigned) [Example 38] | 10 to 100
C[C@@]1(c2cnn(C(F)F)c2)C[C@@H](C(=O)Nc2cnc(-n3nccn3)c(C(F)(F)F)c2)c2cnc3cc(F)nn3c21 (single isomer, unassigned) [Example 81] | ≥ 1000
C[C@]1(c2cnn(C3CC3)c2)C[C@@H](C(=O)Nc2cnc(OC(F)F)c(C#N)c2)c2cnc3cc(F)nn3c21 (single isomer, unassigned) [Example 75] | 100 to 1000
COc1cc(NC(=O)[C@@H]2C[C@@](C)(c3ccn(C(F)F)n3)c3c2cnc2cc(F)nn32)cnc1-c1ncccn1 (single isomer, unassigned) [Example 180] | 100 to 1000
CC(F)(F)n1cc([C@]2(C)C[C@@H](C(=O)Nc3cnc(-n4nccn4)c(Cl)c3)c3cnc4cc(F)nn4c32)cn1 (single isomer, unassigned) [Example 121] | ≥ 1000
C[C@]1(c2cnn(C(F)F)c2)C[C@@H](C(=O)Nc2cnc(-n3nccn3)c(Cl)c2)c2cnc3cc(F)nn3c21 (single isomer, unassigned) [Example 27] | ≥ 1000
CC1(n2cc([C@@]3(C)C[C@@H](C(=O)Nc4cnc(-n5nccn5)c(Cl)c4)c4cnc5cc(F)nn5c43)cn2)CC1 (single isomer, unassigned) [Example 109] | 100 to 1000
Cn1cc([C@@]2(C)C[C@H](C(=O)Nc3cnc(-n4nccn4)c(Cl)c3)c3cnc4c(Cl)c(F)nn4c32)cn1 (single isomer, unassigned) [Example 16] | 100 to 1000
CC(C)n1cc([C@]2(C)C[C@H](C(=O)Nc3cnc(-n4nccn4)c(Cl)c3)c3cnc4cc(F)nn4c32)cn1 (single isomer, unassigned) [Example 50] | 10 to 100
CC1(c2cnn(C3(C)CC3)c2)CC(C(=O)Nc2cnc(-n3nccn3)c(Cl)c2)c2cnc3cc(F)nn3c21 (single isomer, unassigned) [Example 107] | ≥ 1000
